{"source": "paper PMC8894198", "about": "“Biosynthetic Microcin J25 Exerts Strong Antibacterial, Anti-Inflammatory Activities, Low Cytotoxicity Without Increasing Drug-Resistance to Bacteria Target” (Frontiers in Immunology, 2022)", "format_in_all_cases": "cell-based", "key": {"[1]": {"tested_on": "E. coli K88 on IPEC-1 cells", "test": "Protection against E. coli K88 adhesion and colonization of IPEC-1 cells", "conditions": "1, 2, 4, 8 × MIC for 3 h, then E. coli K88 for 2 h; plate counts; 6 biological replicates", "protocol": "Capacity of against E. coli K88 adhesion and colonization of IPEC-1 cells was evaluated. IPEC-1 cells were cultured with or without MccJ25 for 3 h in the absence or presence of E. coli K88 for 2 h. The E. coli K88 adhesion and colonization in the IPEC-1 cells was determined. E. coli K88 (mean CFU/ml ± SEMs) were determined by plate counts, and determined from three individual experiments.\nFigure S1. MccJ25 enhances intestinal epithelial cell to against E. coli K88 infection. […] IPEC-1 cells were cultured in the presence or absence of 1, 2, 4, 8 × MIC of MccJ25 for 3 h, then cells were treated with E. coli K88 for 2 h. The numbers of E. coli K88 were counted. E. coli K88 (mean CFU/ml ± SEMs) were determined by plate counts from 6 biological replicates. **P ≤ 0.01, ***P ≤ 0.001."}, "E. coli K88 [2]": {"tested_on": "E. coli K88", "test": "Electron microscopy (SEM, TEM) of treated bacteria", "protocol": "Scanning electron microscope (SEM) was performed to test the morphological features of E. coli K88 cells by comparing cells incubated in the absence (control) or presence of MccJ25. For SEM sample preparation, the standard protocol was used based on our previous report ([26]) with slight modifications. Overnight E. coli K88 cultures were inoculated and grown to the mid-logarithmic phase in the fresh LB medium at 37°C for 2 h, then harvested by centrifugation, washed twice with PBS and re-suspended in the same buffer. Approximately 2 × 10^7 cells were incubated with 1 and 2 × MIC MccJ25 at 37°C for 1 h. Thereafter, cells were pooled and centrifuged at 5000 g for 5 min. Bacterial pellets were washed 3 times with PBS and centrifuged after each wash. Cells were fixed with 2.5% glutaraldehyde at 4°C overnight and washed 2 times with PBS. They were then harvested, post-fixed with 1% osmium tetroxide for 1 h and dehydrated for 15 min each in a graded ethanol series (50, 70, 80, 90, 95 and 100%). Cells were then treated with absolute acetone for 20 min, a mixture of alcohol and iso-amyl acetate (1:1) for 30 min and pure iso-amyl acetate for 1 h. Lastly, samples were dehydrated in a critical point dryer (Model HCP-2, Hitachi, Chiyoda-ku, Tokyo, Japan) with liquid CO2. The dehydrated samples were coated with gold-palladium and observed by SEM (Model EVO MA10 XVP, Carl Zeiss, Jena, GmbH, Germany). […]"}, "E. coli AZ1": {"tested_on": "E. coli AZ1", "conditions": "source pig tissue", "protocol": "(§1) The minimum inhibitory concentration (MIC) refers to the lowest concentration that can produce a significant hindrance to bacterial growth in a drug sensitivity test by adopting a broth dilution, with certain refinements and modifications based on the previous description ([25], [26]). In short, MccJ25 was dissolved in sterilized distilled water (SDW), serial 2-fold dilutions were prepared in Mueller-Hinton broth (MHB) through a 96-well microtiter plate, and the final concentration of MccJ25 was maintained in the range of 0.003125 to 256 μg/mL. Then, 2 μL of standard and clinically relevant overnight broth cultures of bacteria were inoculated into each well at a concentration of 5 × 10^6 CFU/mL. Microtiter plates were incubated at 37°C for one full day. Two groups were set up: positive (medium with inoculum) and negative (medium only) controls. The minimum bactericidal concentration (MBC) was measured in LB medium and refers to the first drug dilution value at which the initial bacterial concentration was reduced by 99.99%. The final analysis was determined by the results of three replicated and independent experiments. To further assess and clarify the antimicrobial activity of MccJ25, the protective ability against E. coli adhesion, live/dead assay, and killing curve were performed, the detailed methods were provided in Supplementary Materials ."}, "E. coli BRO 477": {"tested_on": "E. coli BRO 477", "conditions": "source broiler stool", "protocol": "as §1"}, "E. coli SWI 437": {"tested_on": "E. coli SWI 437", "conditions": "source pig stool", "protocol": "as §1"}, "Salmonella CATT LX5": {"tested_on": "Salmonella CATT LX5", "conditions": "source mastitis pathogens", "protocol": "as §1"}, "Salmonella CATT LX1": {"tested_on": "Salmonella CATT LX1", "conditions": "source mastitis pathogens", "protocol": "as §1"}, "E. coli BRO 134": {"tested_on": "E. coli BRO 134", "conditions": "source broiler stool", "protocol": "as §1"}, "E. coli CATT921A-1": {"tested_on": "E. coli CATT921A-1", "conditions": "source mastitis pathogens", "protocol": "as §1"}, "E. coli K88 [3]": {"tested_on": "E. coli K88", "protocol": "as §1"}, "[4]": {"conditions": "LB medium, 99.99% reduction, three independent experiments"}, "[5]": {"conditions": "broth dilution in MHB, 37°C, three independent experiments"}}, "note": "Where a SMILES comes first, the peptide text is derived from it. Bridges are numbered along the chain shown (N, C = ends)."}
{"smiles": "CC[C@H](C)[C@H](NC(=O)CNC(=O)[C@@H](NC(=O)[C@H](Cc1ccccc1)NC(=O)[C@H](Cc1ccc(O)cc1)NC(=O)[C@@H]1CCC(=O)NCC(=O)NCC(=O)N[C@@H](C)C(=O)NCC(=O)N[C@@H](Cc2c[nH]cn2)C(=O)N[C@@H](C(C)C)C(=O)N2CCC[C@H]2C(=O)N1)C(C)C)C(=O)NCC(=O)N[C@H](C(=O)N1CCC[C@H]1C(=O)N[C@H](C(=O)N[C@@H](CO)C(=O)N[C@@H](Cc1ccccc1)C(=O)N[C@@H](Cc1ccc(O)cc1)C(=O)NCC(=O)O)[C@@H](C)CC)[C@@H](C)O", "note": "[MccJ25, microcin J25] (GGAGHVPEYFVGIGTPISFYG-OH; lactam N-8 (inferred); C-terminus assumed)", "values": [{"measurement": "E. coli K88 adhesion and colonization", "setting": "[1]", "result": "significantly protects"}, {"measurement": "cell morphology by SEM", "setting": "E. coli K88 [2]; 1 × and 2 × MIC, 60 min", "result": "filamentous and elongated"}, {"measurement": "cell membranes by TEM", "setting": "E. coli K88 [2]; 1 ×, 2 × and 4 × MIC, 0.5 and 1 h", "result": "disrupted"}, {"measurement": "MBC", "setting": "E. coli AZ1; [4]", "result": 1.000, "unit": "µg/mL"}, {"measurement": "MIC", "setting": "E. coli AZ1; [5]", "result": 0.500, "unit": "µg/mL"}, {"measurement": "MIC/MBC", "setting": "E. coli AZ1; ratio", "result": 0.500}, {"measurement": "MBC", "setting": "E. coli BRO 477; [4]", "result": 1.000, "unit": "µg/mL"}, {"measurement": "MIC", "setting": "E. coli BRO 477; [5]", "result": 0.500, "unit": "µg/mL"}, {"measurement": "MIC/MBC", "setting": "E. coli BRO 477; ratio", "result": 0.500}, {"measurement": "MBC", "setting": "E. coli SWI 437; [4]", "result": 0.250, "unit": "µg/mL"}, {"measurement": "MIC", "setting": "E. coli SWI 437; [5]", "result": 0.030, "unit": "µg/mL"}, {"measurement": "MIC/MBC", "setting": "E. coli SWI 437; ratio", "result": 0.120}, {"measurement": "MBC", "setting": "Salmonella CATT LX5; [4]", "result": 0.125, "unit": "µg/mL"}, {"measurement": "MIC", "setting": "Salmonella CATT LX5; [5]", "result": 0.030, "unit": "µg/mL"}, {"measurement": "MIC/MBC", "setting": "Salmonella CATT LX5; ratio", "result": 0.240}, {"measurement": "MBC", "setting": "Salmonella CATT LX1; [4]", "result": 0.250, "unit": "µg/mL"}, {"measurement": "MIC", "setting": "Salmonella CATT LX1; [5]", "result": 0.060, "unit": "µg/mL"}, {"measurement": "MIC/MBC", "setting": "Salmonella CATT LX1; ratio", "result": 0.240}, {"measurement": "MBC", "setting": "E. coli BRO 134; [4]", "result": 2.000, "unit": "µg/mL"}, {"measurement": "MIC", "setting": "E. coli BRO 134; [5]", "result": 0.250, "unit": "µg/mL"}, {"measurement": "MIC/MBC", "setting": "E. coli BRO 134; ratio", "result": 0.125}, {"measurement": "MBC", "setting": "E. coli CATT921A-1; [4]", "result": 2.000, "unit": "µg/mL"}, {"measurement": "MIC", "setting": "E. coli CATT921A-1; [5]", "result": 0.250, "unit": "µg/mL"}, {"measurement": "MIC/MBC", "setting": "E. coli CATT921A-1; ratio", "result": 0.125}, {"measurement": "MBC", "setting": "E. coli K88 [3]; [4]", "result": 0.500, "unit": "µg/mL"}, {"measurement": "MIC", "setting": "E. coli K88 [3]; broth dilution in MHB, 37°C, one day, three independent experiments", "result": 0.250, "unit": "µg/mL"}, {"measurement": "MIC/MBC", "setting": "E. coli K88 [3]; ratio", "result": 0.500}]}
